{"source": "patent US10774071B2", "about": "“PD-1/PD-L1 inhibitors” (Gilead Sciences, Inc., priority 2018, dated 2020)", "key": {"[1]": {"target": "PD-1/PD-L1 (Homo sapiens (Human), UniProt Q9NZQ7)", "assay": "PD-1/PD-L1 biochemical protein-protein interaction assay (ALPHA)", "type": "binding", "conditions": "0.3 nM His tagged PD-L1, 2.5 nM biotinylated Fc-PD-1, readings of 0.064 nM are equal to or less than 0.064 nM, read-out: IC50 PD-L1-PD1", "method": "Compounds were tested in biochemical protein-protein interaction assays to determine if they can specifically block the interaction between the extracellular domains of PD-1/PD-L1 or CTLA/CD80. Binding of the protein pairs is measured using a bead based Amplified Luminescent Proximity Homogeneous Assay (ALPHA) platform. […] Final protein concentration in the assays were 0.3 nM (His tagged PD-L1), 2.5 nM (biotinylated Fc-PD-1), 1 nM (His tagged CTLA4) and 1 nM (biotinylated CD80)."}, "[2]": {"target": "PD-L1 (Homo sapiens (Human), UniProt Q9NZQ7)", "assay": "PD-L1/PD-L1 dimerization biochemical protein-protein interaction assay (ALPHA)", "type": "binding", "conditions": "0.5 nM His tagged PD-L1 and 0.5 nM FLAG tagged PD-L1, Table 4A, read-out: AC50 PDL1 Dimer 1 nM"}}, "note": "pIC50: −log10 of the molar value."}
{"smiles": "COc1nc(-c2cccc(-c3cccc4c3CC[C@@H]4Nc3nc(OC)c(CN[C@@H](C)C(=O)O)cc3C(F)(F)F)c2Cl)ccc1CNC[C@@H]1CCC(=O)N1", "note": "[A-64]", "values": [{"measurement": "pIC50", "setting": "[1]", "result": "≥ 10.19"}, {"measurement": "AC50", "setting": "[2]", "result": 8.04, "unit": "nM"}]}
{"smiles": "COc1nc(-c2cccc(-c3cccc4c3CC[C@@H]4Nc3nc(OC)c(CNCC(=O)O)cc3C(F)(F)F)c2Cl)ccc1CNC[C@@H]1CCC(=O)N1", "note": "[A-65]", "values": [{"measurement": "pIC50", "setting": "[1]", "result": "≥ 10.19"}, {"measurement": "AC50", "setting": "[2]", "result": 14.7, "unit": "nM"}]}
{"smiles": "COc1nc(-c2cccc(-c3cccc4c3CC[C@@H]4Nc3nc(OC)c(CN[C@@H](C)C(=O)O)cc3C(F)(F)F)c2Cl)ccc1CN[C@H]1C[C@](C)(O)C1", "note": "[A-66]", "values": [{"measurement": "pIC50", "setting": "[1]", "result": "≥ 10.19"}, {"measurement": "AC50", "setting": "[2]", "result": 19.6, "unit": "nM"}]}
{"smiles": "COc1nc(-c2cccc(-c3cccc4c3CC[C@@H]4Nc3nc(OC)c(CNCC(=O)O)cc3C(F)(F)F)c2Cl)ccc1CN[C@H]1C[C@](C)(O)C1", "note": "[A-67]", "values": [{"measurement": "pIC50", "setting": "[1]", "result": "≥ 10.19"}, {"measurement": "AC50", "setting": "[2]", "result": 32.9, "unit": "nM"}]}
{"smiles": "COc1nc(-c2cccc(-c3cccc4c3CC[C@@H]4Nc3nc(OC)c(CN4CC[C@@](C)(C(=O)O)C4)nc3C(F)(F)F)c2Cl)ccc1CN1CC(C)(O)C1", "note": "[A-68]", "values": [{"measurement": "pIC50", "setting": "[1]", "result": "≥ 10.19"}, {"measurement": "AC50", "setting": "[2]", "result": 83.7, "unit": "nM"}]}
{"smiles": "COc1nc(-c2cccc(-c3cccc4c3CC[C@@H]4Nc3nc(OC)c(CN4C5CCC4(C(=O)O)CC5)nc3C(F)(F)F)c2Cl)ccc1CNC[C@@H]1CCC(=O)N1", "note": "[A-69]", "values": [{"measurement": "pIC50", "setting": "[1]", "result": "≥ 10.19"}, {"measurement": "AC50", "setting": "[2]", "result": 5.27, "unit": "nM"}]}
{"smiles": "COc1nc(-c2cccc(-c3cccc4c3CC[C@@H]4Nc3nc(OC)c(CN4CCC5CC4(C(=O)O)C5)nc3C(F)(F)F)c2Cl)ccc1CNC[C@@H]1CCC(=O)N1", "note": "[A-70]", "values": [{"measurement": "pIC50", "setting": "[1]", "result": "≥ 10.19"}, {"measurement": "AC50", "setting": "[2]", "result": 15.6, "unit": "nM"}]}
{"smiles": "COc1nc(-c2cccc(-c3cccc4c3CC[C@@H]4Nc3nc(OC)c(CN4CC(C)(O)C4)nc3C(F)(F)F)c2Cl)ccc1CN1CC[C@@H](C(=O)O)C1", "note": "[A-71]", "values": [{"measurement": "pIC50", "setting": "[1]", "result": "≥ 10.19"}, {"measurement": "AC50", "setting": "[2]", "result": 52.4, "unit": "nM"}]}
{"smiles": "COc1nc(-c2cccc(-c3cccc4c3CC[C@@H]4Nc3nc(OC)c(CN[C@@H](C)C(=O)O)nc3C(F)(F)F)c2Cl)ccc1CN1CC(O)C1", "note": "[A-72]", "values": [{"measurement": "pIC50", "setting": "[1]", "result": "≥ 10.19"}, {"measurement": "AC50", "setting": "[2]", "result": 13.4, "unit": "nM"}]}
{"smiles": "COc1nc(-c2cccc(-c3cccc4c3CC[C@@H]4Nc3nc(OC)c(CNCC(=O)O)nc3C(F)(F)F)c2Cl)ccc1CN1CC(O)C1", "note": "[A-73]", "values": [{"measurement": "pIC50", "setting": "[1]", "result": "≥ 10.19"}, {"measurement": "AC50", "setting": "[2]", "result": 15.7, "unit": "nM"}]}
{"smiles": "COc1nc(-c2cccc(-c3cccc4c3CC[C@@H]4Nc3nc(OC)c(CN[C@@H](C)C(=O)O)nc3C(F)(F)F)c2Cl)ccc1CN1CC(C)(O)C1", "note": "[A-74]", "values": [{"measurement": "pIC50", "setting": "[1]", "result": "≥ 10.19"}, {"measurement": "AC50", "setting": "[2]", "result": 9.07, "unit": "nM"}]}
{"smiles": "COc1nc(-c2cccc(-c3cccc4c3CC[C@@H]4Nc3nc(OC)c(CNCC(=O)O)nc3C(F)(F)F)c2Cl)ccc1CN1CC(C)(O)C1", "note": "[A-75]", "values": [{"measurement": "pIC50", "setting": "[1]", "result": "≥ 10.19"}, {"measurement": "AC50", "setting": "[2]", "result": 18.1, "unit": "nM"}]}
{"smiles": "COc1nc(-c2cccc(-c3cccc4c3CC[C@@H]4Nc3nc(OC)c(CN4C[C@H](C)C[C@H]4C(=O)O)nc3C(F)(F)F)c2Cl)ccc1CNC[C@@H]1CCC(=O)N1", "note": "[A-76]", "values": [{"measurement": "pIC50", "setting": "[1]", "result": "≥ 10.19"}, {"measurement": "AC50", "setting": "[2]", "result": 30.2, "unit": "nM"}]}
{"smiles": "CCC1C(C(=O)O)CCN1Cc1nc(C(F)(F)F)c(N[C@H]2CCc3c(-c4cccc(-c5ccc(CNC[C@@H]6CCC(=O)N6)c(OC)n5)c4Cl)cccc32)nc1OC", "note": "(some centres unmarked) [A-77]", "values": [{"measurement": "pIC50", "setting": "[1]", "result": "≥ 10.19"}, {"measurement": "AC50", "setting": "[2]", "result": 26.6, "unit": "nM"}]}
{"smiles": "COc1nc(-c2cccc(-c3cccc4c3CC[C@@H]4Nc3nc(OC)c(CN4C[C@H](C)C[C@H]4C(=O)O)cc3C(F)(F)F)c2Cl)ccc1CNC[C@@H]1CCC(=O)N1", "note": "[A-78]", "values": [{"measurement": "pIC50", "setting": "[1]", "result": "≥ 10.19"}, {"measurement": "AC50", "setting": "[2]", "result": 13.5, "unit": "nM"}]}
{"smiles": "CCC1C(C(=O)O)CCN1Cc1cc(C(F)(F)F)c(N[C@H]2CCc3c(-c4cccc(-c5ccc(CNC[C@@H]6CCC(=O)N6)c(OC)n5)c4Cl)cccc32)nc1OC", "note": "(some centres unmarked) [A-79]", "values": [{"measurement": "pIC50", "setting": "[1]", "result": "≥ 10.19"}, {"measurement": "AC50", "setting": "[2]", "result": 21.4, "unit": "nM"}]}
{"smiles": "COc1nc(-c2cccc(-c3cccc4c3CC[C@@H]4Nc3nc(OC)c(CN4C[C@@H]5CC[C@H]4[C@@H]5C(=O)O)nc3C(F)(F)F)c2Cl)ccc1CNC[C@@H]1CCC(=O)N1", "note": "[A-80]", "values": [{"measurement": "pIC50", "setting": "[1]", "result": "≥ 10.19"}, {"measurement": "AC50", "setting": "[2]", "result": 19.9, "unit": "nM"}]}
{"smiles": "COc1nc(-c2cccc(-c3cccc4c3CC[C@@H]4Nc3nc(OC)c(CN4CC5CC(C(=O)O)C4C5)nc3C(F)(F)F)c2Cl)ccc1CNC[C@@H]1CCC(=O)N1", "note": "(some centres unmarked) [A-81]", "values": [{"measurement": "pIC50", "setting": "[1]", "result": "≥ 10.19"}, {"measurement": "AC50", "setting": "[2]", "result": 23.1, "unit": "nM"}]}
{"smiles": "COC(=O)C12CCC(CC1)N(Cc1nc(C(F)(F)F)c(N[C@H]3CCc4c(-c5cccc(-c6ccc(CNC[C@@H]7CCC(=O)N7)c(OC)n6)c5Cl)cccc43)nc1OC)C2", "note": "[A-82]", "values": [{"measurement": "pIC50", "setting": "[1]", "result": 9.85}, {"measurement": "AC50", "setting": "[2]", "result": 84.9, "unit": "nM"}]}
{"smiles": "COc1nc(-c2cccc(-c3cccc4c3CC[C@@H]4Nc3nc(OC)c(CN[C@@H](C)C(=O)O)cc3C(F)(F)F)c2Cl)ccc1CNC[C@H]1C[C@](C)(O)C1", "note": "[A-83]", "values": [{"measurement": "pIC50", "setting": "[1]", "result": "≥ 10.19"}, {"measurement": "AC50", "setting": "[2]", "result": 23.6, "unit": "nM"}]}
{"smiles": "COc1nc(-c2cccc(-c3cccc4c3CC[C@@H]4Nc3nc(OC)c(CNCC(=O)O)cc3C(F)(F)F)c2Cl)ccc1CNC[C@H]1C[C@](C)(O)C1", "note": "[A-84]", "values": [{"measurement": "pIC50", "setting": "[1]", "result": "≥ 10.19"}, {"measurement": "AC50", "setting": "[2]", "result": 31.8, "unit": "nM"}]}
{"smiles": "COc1nc(-c2cccc(-c3cccc4c3CC[C@@H]4Nc3nc(OC)c(CNC4(C(=O)O)CC4)nc3C(F)(F)F)c2Cl)ccc1CNC[C@H]1C[C@](C)(O)C1", "note": "[A-85]", "values": [{"measurement": "pIC50", "setting": "[1]", "result": "≥ 10.19"}, {"measurement": "AC50", "setting": "[2]", "result": 42.5, "unit": "nM"}]}
